A melting point compilation (Tetko et al.)

SMILES	melting point
CCCCCCCCOc1ccccc1OCCCCCCCC	22 to 25 °C
COc1c(Cl)c(Cl)c(Cl)c(Cl)c1Cl	108 °C
N=C1NC(=O)C(=NNc2ccc(Br)cc2)S1	284 °C
O=c1c(C2CC(c3ccc(OCc4ccc(C(F)(F)F)cc4)cc3)Cc3ccccc32)c(O)oc2ccccc12 (stereo unspecified)	92.5 °C
CCNc1cc(O)ccc1C	88 °C
O=[N+]([O-])c1cccc2nsnc12	106 to 110 °C
CCCCCCCCCCCCCCCCN	46.8 °C
CCCCCC(=O)OCC(COC(=O)CCCCC)OC(=O)CCCCC	-60 °C
COC(=O)c1nc(Cl)c(N)nc1N	212 °C
FC(F)(F)C(F)(F)C(F)(F)C(F)(F)C(F)(F)C(F)(F)C(F)(F)F	-78 °C
CCC/C=C/CCCCCC	-63.7 °C
CC(C)CC=O	-51 °C
COC(=O)C1=C(C(=O)OC)Cc2cc3c(cc2C1)CC3	133 °C
CC(C)(O)CCSc1ccc(S(N)(=O)=O)cc1	140 °C
CC(C)c1ccncc1	-54.9 °C
COC(=O)c1cnc(NN)nc1C(F)(F)F	132 to 134 °C
COP(=O)(OC)SCn1c(=O)oc2cc(Cl)cnc21	89 °C
c1ccc(C2CCCNC2)cc1 (stereo unspecified)	14.5 °C
N#CCCNC1CCCCC1	122 to 124 °C
CC(=O)OC1CCC2C3CCC4CC(=C(C)C)CCC4(C)C3CCC12C (stereo unspecified)	107 to 108 °C
Cc1ccc(NN=C2C(=O)NN=C2C(F)(F)F)cc1	230 °C
COc1ccc(F)c(F)c1C#N	81 °C

SMILES	melting point
CCc1nn(C)c(C(=O)NCc2ccc(C(C)(C)C)cc2)c1Cl	65 °C
CC(=O)OCCOCCOCCOC(C)=O	-50 °C
CC(O)C(NC(=O)OC(C)(C)C)C(=O)O (stereo unspecified)	79 °C
O=CC(C=O)c1ccncn1	227 to 232 °C
Nc1ccc(Br)cc1N	62 to 64 °C
NCCc1ccc(O)cc1	164 °C
CCCCCCC(=O)CC	-8 °C
Clc1nc(Br)[nH]c1Cl	215 to 216 °C
CCCCN(C)C(=O)Nc1ccc(Cl)c(Cl)c1	102 °C
Cc1ccc(-c2ccc(C)s2)s1	65 to 68 °C
Clc1ccc(C(Cl)(Cl)Cl)cc1	5.8 °C
CCCCCCCCCCCCCC1CCCCC1	18.5 °C
O=C(O)C=Cc1c(F)c(F)c(F)c(F)c1F	153 °C
CC12CCC(C1(C)C)C(C/C=C\c1ccccc1)(C1(C/C=C/c3ccccc3)C(=O)C3(C)CCC1C3(C)C)C2=O (stereo unspecified)	188 °C
Cc1nccn1-c1ccc(N)cc1	112 to 113 °C
CSC(=CC(=C(C#N)C#N)c1ccc(Cl)cc1)SC	106 to 110 °C
CSc1ncccc1C(=O)Cl	94 °C
NC(=S)c1ccc(Cl)cc1	127 to 130 °C
O=CF	-142 °C
OCC1(CO)CC=CCC1	88.5 °C
Cc1c(C#N)cccc1C#N	136 °C
c1cc(CCCc2ccncc2)ccn1	55 °C

SMILES	melting point
COc1cc2c(cc1OC)[C@@H](C(=O)c1ccc3c(c1OC)C=CC(C)(C)O3)CCO2	118 °C
COc1ccc(OC)c(C=CC(=O)n2cnc3c(N)ncnc32)c1	260 to 262 °C
Cc1ccc(NC(N)=O)cc1	178 to 181 °C
CCCCCCCCCC(=O)OC(=O)CCCCCCCCC	24.7 °C
COS(=O)(=O)c1cc([N+](=O)[O-])ccc1C#Cc1ccc([N+](=O)[O-])cc1S(=O)(=O)OC	228 °C
CN(C)C(C)(C)CO	19 °C
Cc1ccc(C(=O)NN)cc1	117 °C
CCCCCCCCCCCCCCOc1ccccc1NC(=O)c1cc(Oc2ccc([N+](=O)[O-])cc2CN(C(=O)Cl)C(C)C)c2ccccc2c1O	109 to 116 °C
CCCCCCCCCCOc1ccc(C=O)cc1OCCCCCCCCCC	61 to 66 °C
Nc1cc(C(Cl)=C(Cl)Cl)c(S(N)(=O)=O)cc1S(N)(=O)=O	203 °C
CCCCCCCCCCCCCCCCOC(C)=O	-18.5 °C
COC(=O)c1cc(OC)c(O)c(OC)c1	106 °C
OC(CCl)c1ccc(Cl)cc1Cl (stereo unspecified)	48 to 52 °C
O=C(O)CSCSCC(=O)O	125 to 128 °C
CC(C)(C)NC(=O)[C@@H]1CC2CCCCC2CN1 (stereo partly specified)	115 to 117 °C
Nc1cccc2c1CCCC2	38 °C
C=C(C)C(=O)OCCC(F)(F)C(F)(F)C(F)(F)C(F)(F)C(F)(F)C(F)(F)C(F)(F)C(F)(F)C(F)(F)C(F)(F)F	45 to 50 °C
NNC(=O)c1ccc(Cl)cc1	164 °C
Cc1cc(C)c([N+](=O)[O-])c(C)c1[N+](=O)[O-]	85.3 °C
O=C(CBr)c1cccc(Cl)c1	39 to 41 °C

Results, then the compound that gave them:

melting point	SMILES
76 °C	COc1cc(C=O)ccc1OC(C)=O
104 °C	N#Cc1ccnc2ccccc12
108 to 109 °C	O=C(CC(=O)C(F)(F)F)c1ccc2c(c1)OCO2
214 °C	O=C(Nc1ccc(Cl)cc1)Nc1ccc(Cl)c(C(F)(F)F)c1
222 °C	O=C(O)CNC(=O)c1ccccc1
9 °C	CCN(CC)C(=O)SCc1ccccc1Cl
39 to 41.5 °C	CNCc1ccc(-c2ccccc2)nc1
91.5 °C	Cc1ccccc1-c1ccccc1P(C(C)(C)C)C(C)(C)C
252 to 260 °C	Brc1ccc(-c2nc(-c3ccccc3)c(-c3ccccc3)[nH]2)cc1
142 °C	O=C(c1ccccc1)N(CC(=Nc1ccccc1)Nc1ccccc1)c1ccccc1
207 to 208 °C	Cc1nn(Cc2ccc(C(=O)O)o2)c(C)c1Br
152 °C	CCc1ccc2cc3ccccc3cc2c1
83 °C	O=C(Cl)c1ccc(-c2ccco2)s1
238 °C	O=C(O)c1cc2ccccc2cc1C(=O)O
284 to 288 °C	CC1=NN(c2ccc(C(=O)O)cc2)C(=O)C1
129 °C	CC(=O)N1c2ccccc2CC1c1ccccc1 (stereo unspecified)
146 to 147 °C	Cc1cccn2c(=O)c(C(=O)c3ccccc3)cnc12
214 °C	CC(C)(C)N(NC(=O)c1ccccc1)C(=O)c1cc(Cl)ccc1Cl
87 °C	O=C(O)c1ccccc1-c1ccco1
200 to 202 °C	CCCC(=O)c1cc2cc(Br)cc(Br)c2oc1=O
46 °C	CC(=O)OC(OC(C)=O)c1ccccc1
196 °C	CC(=O)c1nn(-c2cccc([N+](=O)[O-])c2)c(=NC(=O)c2ccccc2)s1
270 °C	N#C/C(=N\Nc1c(Br)cc(Br)cc1Br)c1nc2ccccc2[nH]1
217 °C	COc1ccc(-c2cc(N3CCCC3)cc3c2c(=O)n(-c2ccccc2)n3C)cc1
120 to 122 °C	Cc1nc(-c2ccc(C(=O)Cl)cc2)cs1
220 to 222 °C	COc1ccc2c(c1)/C(=N/Nc1ccc([N+](=O)[O-])cc1[N+](=O)[O-])C2
206 to 207 °C	COc1ccc(NC(=S)NNC(=O)c2nn(-c3ccccc3)nc2C)cc1
